Experimental data reported in ChEMBL document CHEMBL5728520, “Carboxamide-pyrimidine derivatives as SHP2 antagonists” (2021).
pIC50: −log10 of the molar value.

What follows are compounds tested against T1, Tyrosine-protein phosphatase non-receptor type 11 (Homo sapiens, UniProt Q06124) (assay: Biochemical Assay: The inhibition of SHP2 by compounds of the invention was monitored using the surrogate substrate DiFMUP after protein activation by a peptide bearing two appropriately spaced phosphotyrosine. Full length SHP2 protein (Recombinant HumanSHP-2, E. coli derived Ser2Arg593, N-terminal 6His tag from R&D systems; […]) was incubated with activating peptide, IRSI_2pY (New England Peptide, 140 nM) and DiFMUP (molecular probes, 80 uM) at RT in buffer (HEPES pH 7.2 60 mM, DDT 5 mM, KCl 75 mM, NaCl 75 mM, EDTA 1 mM, Tween 20 0.05%) in presence of compound (10 concentrations range, top concentration 50 Î¼M) for 60 min. The generation of the DiFMU product by activated SHP2 was monitored through Fluorescence measurement with a PerkinElmer Envision reader.).
T1 sequence (Q06124 whole entry): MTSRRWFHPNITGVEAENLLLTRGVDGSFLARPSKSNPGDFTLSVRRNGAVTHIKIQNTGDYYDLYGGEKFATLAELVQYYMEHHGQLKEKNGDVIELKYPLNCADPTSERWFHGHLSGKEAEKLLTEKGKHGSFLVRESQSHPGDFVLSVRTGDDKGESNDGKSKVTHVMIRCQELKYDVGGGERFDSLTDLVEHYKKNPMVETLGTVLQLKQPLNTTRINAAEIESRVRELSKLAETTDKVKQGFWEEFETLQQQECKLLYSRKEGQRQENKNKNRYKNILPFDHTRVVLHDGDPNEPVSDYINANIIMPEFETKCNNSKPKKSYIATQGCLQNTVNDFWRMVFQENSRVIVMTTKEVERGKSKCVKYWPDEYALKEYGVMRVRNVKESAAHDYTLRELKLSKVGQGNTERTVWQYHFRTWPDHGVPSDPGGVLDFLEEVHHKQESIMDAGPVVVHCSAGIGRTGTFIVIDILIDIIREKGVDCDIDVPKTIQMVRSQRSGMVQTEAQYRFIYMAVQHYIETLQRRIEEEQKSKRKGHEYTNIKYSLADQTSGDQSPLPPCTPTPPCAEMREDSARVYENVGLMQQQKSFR
For `CC1(N)CCN(c2nc(Cl)c(-c3cccc(Cl)c3Cl)c(C(N)=O)n2)CC1`, the pIC50 was 7.22. For `CC1(N)CCN(c2ncc(-c3cccc(Cl)c3Cl)c(C(N)=O)n2)CC1`, the pIC50 was 5.43. In the case of `C[C@]12CCCCC[C@](C)(CN(c3nc(N)c(-c4cccc(Cl)c4Cl)c(C(N)=O)n3)C1)[C@H]2N`, the pIC50 was under 5.00.
